Test results: US20250032451A1, “MICROSPHERE FORMULATIONS COMPRISING ASENAPINE AND METHODS FOR MAKING AND USING THE SAME” (Oakwood Laboratories, LLC, priority 2021, published 2025)
Structures can show the parent of a compound that is named as a salt. Where two headings read alike, the source gives them in different places.

Legend:
[1] = Solubility of asenapine maleate in water and solvents; type: physicochemical
pKa of asenapine maleate = type: physicochemical

solubility ([1]; N-methylpyrrolidone, organic solvent or mixture, NMP, read-out: N-methylpyrrolidone (NMP) solubility): 700 mg/mL
solubility ([1]; benzyl alcohol, organic solvent or mixture, BA, read-out: benzyl alcohol (BA) solubility): 500 mg/mL
solubility ([1]; dichloromethane, organic solvent or mixture, DCM, read-out: dichloromethane (DCM) solubility): 324 mg/mL
solubility ([1]; dimethyl sulfoxide, organic solvent or mixture, DMSO, read-out: dimethyl sulfoxide (DMSO) solubility): 700 mg/mL
solubility ([1]; ethanol, organic solvent or mixture, EtOH, read-out: ethanol (EtOH) solubility): 100 mg/mL
solubility ([1]; ethyl acetate, organic solvent or mixture, EA, read-out: ethyl acetate (EA) solubility): 10 mg/mL
solubility ([1]; water, read-out: water solubility): 3 mg/mL
pKa (pKa of asenapine maleate): 8.64
Compound: CN1C[C@@H]2c3ccccc3Oc3ccc(Cl)cc3[C@H]2C1 (racemic) [asenapine maleate]
